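Assay format: 96-well plates, 48-hour exposure. The concentration for full growth arrest is given as TGI.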
Columns and labels:
Test in all cases: NCI anticancer screen, dose series, 48 h
786-0 renal = system: 786-0 renal
A549 NSCLC = system: A549 NSCLC
ACHN renal = system: ACHN renal
BT-549 breast = system: BT-549 breast
CCRF-CEM leukemia = system: CCRF-CEM leukemia
COLO 205 colon = system: COLO 205 colon
DU-145 prostate = system: DU-145 prostate
EKVX NSCLC = system: EKVX NSCLC
HCC-2998 colon = system: HCC-2998 colon
HCT-116 colon = system: HCT-116 colon
HCT-15 colon = system: HCT-15 colon
HL-60(TB) leukemia = system: HL-60(TB) leukemia
HOP-62 NSCLC = system: HOP-62 NSCLC
HOP-92 NSCLC = system: HOP-92 NSCLC
HS 578T breast = system: HS 578T breast
HT29 colon = system: HT29 colon
IGROV1 ovarian = system: IGROV1 ovarian
K-562 leukemia = system: K-562 leukemia
KM12 colon = system: KM12 colon
LOX IMVI melanoma = system: LOX IMVI melanoma
M14 melanoma = system: M14 melanoma
MALME-3M melanoma = system: MALME-3M melanoma
MCF7 breast = system: MCF7 breast
MDA-MB-231 breast = system: MDA-MB-231 breast
MDA-MB-435 = system: MDA-MB-435
MDA-N = system: MDA-N
MOLT-4 leukemia = system: MOLT-4 leukemia
NCI-H226 lung = system: NCI-H226 lung
NCI-H23 lung = system: NCI-H23 lung
NCI-H460 lung = system: NCI-H460 lung
NCI-H522 lung = system: NCI-H522 lung
NCI/ADR-RES ovarian = system: NCI/ADR-RES ovarian
OVCAR-3 ovarian = system: OVCAR-3 ovarian
OVCAR-4 ovarian = system: OVCAR-4 ovarian
OVCAR-5 ovarian = system: OVCAR-5 ovarian
OVCAR-8 ovarian = system: OVCAR-8 ovarian
PC-3 prostate = system: PC-3 prostate
RPMI-8226 leukemia = system: RPMI-8226 leukemia
RXF 393 renal = system: RXF 393 renal
SF-268 CNS = system: SF-268 CNS
SF-295 CNS = system: SF-295 CNS
SF-539 CNS = system: SF-539 CNS
SK-MEL-2 melanoma = system: SK-MEL-2 melanoma
SK-MEL-28 melanoma = system: SK-MEL-28 melanoma
SK-MEL-5 melanoma = system: SK-MEL-5 melanoma
SK-OV-3 ovarian = system: SK-OV-3 ovarian
SN12C renal = system: SN12C renal
SNB-19 CNS = system: SNB-19 CNS
SNB-75 CNS = system: SNB-75 CNS
SR leukemia = system: SR leukemia
SW-620 colon = system: SW-620 colon
T-47D breast = system: T-47D breast
TK-10 renal = system: TK-10 renal
U251 CNS = system: U251 CNS
UACC-257 melanoma = system: UACC-257 melanoma
UACC-62 melanoma = system: UACC-62 melanoma
UO-31 renal = system: UO-31 renal
A498 renal = system: A498 renal
CAKI-1 renal = system: CAKI-1 renal

`CCCC(=O)OCC1OC(n2cc(F)c(=O)[nH]c2=O)C(F)C1O` (configuration not stated) showed a TGI (786-0 renal) of over 100 µM, a TGI (A549 NSCLC) of over 100 µM and a TGI (ACHN renal) of over 100 µM. The TGI (BT-549 breast) was over 100 µM, the TGI (CCRF-CEM leukemia) was over 100 µM and the TGI (COLO 205 colon) was over 100 µM. The TGI (DU-145 prostate) was over 67.1 µM, the TGI (EKVX NSCLC) was over 100 µM and the TGI (HCC-2998 colon) was over 100 µM. It also gave a TGI (HCT-116 colon) of over 100 µM, a TGI (HCT-15 colon) of over 100 µM and a TGI (HL-60(TB) leukemia) of over 100 µM. It also gave a TGI (HOP-62 NSCLC) of over 100 µM, a TGI (HOP-92 NSCLC) of over 100 µM and a TGI (HS 578T breast) of over 100 µM. The TGI (HT29 colon) was over 100 µM, the TGI (IGROV1 ovarian) was over 100 µM and the TGI (K-562 leukemia) was over 100 µM. The TGI (KM12 colon) was over 100 µM, the TGI (LOX IMVI melanoma) was over 100 µM and the TGI (M14 melanoma) was over 100 µM. The TGI (MALME-3M melanoma) was over 100 µM, the TGI (MCF7 breast) was over 100 µM and the TGI (MDA-MB-231 breast) was over 100 µM. For the same compound, the TGI (MDA-MB-435) was over 100 µM, the TGI (MDA-N) was over 100 µM and the TGI (MOLT-4 leukemia) was over 100 µM. It also gave a TGI (NCI-H226 lung) of over 100 µM, a TGI (NCI-H23 lung) of over 100 µM and a TGI (NCI-H460 lung) of over 100 µM. It also gave a TGI (NCI-H522 lung) of over 100 µM, a TGI (NCI/ADR-RES ovarian) of over 100 µM and a TGI (OVCAR-3 ovarian) of over 100 µM. The TGI (OVCAR-4 ovarian) was over 100 µM, the TGI (OVCAR-5 ovarian) was over 100 µM and the TGI (OVCAR-8 ovarian) was over 100 µM. For the same compound, the TGI (PC-3 prostate) was over 100 µM, the TGI (RPMI-8226 leukemia) was over 100 µM and the TGI (RXF 393 renal) was over 100 µM. For the same compound, the TGI (SF-268 CNS) was over 100 µM, the TGI (SF-295 CNS) was over 100 µM and the TGI (SF-539 CNS) was over 31.6 µM. For the same compound, the TGI (SK-MEL-2 melanoma) was over 100 µM, the TGI (SK-MEL-28 melanoma) was over 100 µM and the TGI (SK-MEL-5 melanoma) was over 100 µM. For the same compound, the TGI (SK-OV-3 ovarian) was over 100 µM, the TGI (SN12C renal) was over 100 µM and the TGI (SNB-19 CNS) was over 100 µM. The TGI (SNB-75 CNS) was over 100 µM, the TGI (SR leukemia) was over 100 µM and the TGI (SW-620 colon) was over 100 µM. It also gave a TGI (T-47D breast) of over 100 µM, a TGI (TK-10 renal) of over 100 µM and a TGI (U251 CNS) of over 100 µM. It also gave a TGI (UACC-257 melanoma) of over 100 µM, a TGI (UACC-62 melanoma) of over 100 µM and a TGI (UO-31 renal) of over 100 µM.
In the case of `O=S(=O)(CC(Cl)c1ccccc1)c1nc2ccccc2s1` (configuration not stated), the TGI (786-0 renal) is reported as 19.4 µM, the TGI (A498 renal) is reported as 35.1 µM and the TGI (A549 NSCLC) is reported as 43.1 µM. The TGI (ACHN renal) was 29.1 µM, the TGI (BT-549 breast) was 8.72 µM and the TGI (CAKI-1 renal) was 4.4 µM. It also gave a TGI (CCRF-CEM leukemia) of 4.28 µM, a TGI (COLO 205 colon) of 22.2 µM and a TGI (DU-145 prostate) of 30.2 µM. The TGI (EKVX NSCLC) was 35.4 µM, the TGI (HCC-2998 colon) was 31.8 µM and the TGI (HCT-116 colon) was 23.6 µM. For the same compound, the TGI (HCT-15 colon) was 21.9 µM, the TGI (HL-60(TB) leukemia) was 4.43 µM and the TGI (HOP-62 NSCLC) was 41.1 µM. For the same compound, the TGI (HOP-92 NSCLC) was 9.38 µM, the TGI (HS 578T breast) was over 69 µM and the TGI (HT29 colon) was 21.2 µM. The TGI (IGROV1 ovarian) was 24.2 µM, the TGI (K-562 leukemia) was 7.43 µM and the TGI (KM12 colon) was 32 µM. For the same compound, the TGI (LOX IMVI melanoma) was 4.04 µM, the TGI (M14 melanoma) was 7.2 µM and the TGI (MALME-3M melanoma) was 23.6 µM. For the same compound, the TGI (MCF7 breast) was 23.3 µM, the TGI (MDA-MB-231 breast) was 30.4 µM and the TGI (MDA-MB-435) was 20.5 µM. The TGI (MDA-N) was 18.1 µM, the TGI (MOLT-4 leukemia) was 7.64 µM and the TGI (NCI-H226 lung) was 22.1 µM. The TGI (NCI-H23 lung) was 25.5 µM, the TGI (NCI-H460 lung) was 52.4 µM and the TGI (NCI-H522 lung) was 4.89 µM. For the same compound, the TGI (NCI/ADR-RES ovarian) was 49 µM, the TGI (OVCAR-3 ovarian) was 23.2 µM and the TGI (OVCAR-4 ovarian) was 51.1 µM. The TGI (OVCAR-5 ovarian) was 28.8 µM, the TGI (OVCAR-8 ovarian) was 23.8 µM and the TGI (PC-3 prostate) was 29.9 µM. For the same compound, the TGI (RPMI-8226 leukemia) was 9.65 µM, the TGI (RXF 393 renal) was 42 µM and the TGI (SF-268 CNS) was 33.1 µM. The TGI (SF-295 CNS) was 32.6 µM, the TGI (SF-539 CNS) was 23.9 µM and the TGI (SK-MEL-2 melanoma) was 37.4 µM. It also gave a TGI (SK-MEL-28 melanoma) of 29.7 µM, a TGI (SK-MEL-5 melanoma) of 16.7 µM and a TGI (SK-OV-3 ovarian) of 32.9 µM. It also gave a TGI (SN12C renal) of 30.3 µM, a TGI (SNB-19 CNS) of 32.3 µM and a TGI (SNB-75 CNS) of 27.8 µM. The TGI (SR leukemia) was 4.55 µM, the TGI (SW-620 colon) was 20.7 µM and the TGI (T-47D breast) was 41.7 µM. For the same compound, the TGI (TK-10 renal) was 34.2 µM, the TGI (U251 CNS) was 25.9 µM and the TGI (UACC-257 melanoma) was 23.2 µM. The TGI (UACC-62 melanoma) was 40 µM and the TGI (UO-31 renal) was 29.4 µM.
In the case of `COc1ccc(C2(CC(C)C)CCNC2)cc1OC` (configuration not stated), the TGI (786-0 renal) is reported as over 100 µM, the TGI (A498 renal) is reported as over 100 µM and the TGI (A549 NSCLC) is reported as over 100 µM. It also gave a TGI (ACHN renal) of over 100 µM, a TGI (BT-549 breast) of over 100 µM and a TGI (CAKI-1 renal) of over 100 µM. For the same compound, the TGI (CCRF-CEM leukemia) was over 100 µM, the TGI (COLO 205 colon) was over 100 µM and the TGI (DU-145 prostate) was over 100 µM. The TGI (EKVX NSCLC) was over 100 µM, the TGI (HCC-2998 colon) was 38.5 µM and the TGI (HCT-116 colon) was over 100 µM. It also gave a TGI (HCT-15 colon) of over 100 µM, a TGI (HL-60(TB) leukemia) of over 100 µM and a TGI (HOP-62 NSCLC) of over 100 µM. For the same compound, the TGI (HOP-92 NSCLC) was over 100 µM, the TGI (HS 578T breast) was over 100 µM and the TGI (HT29 colon) was over 100 µM. It also gave a TGI (IGROV1 ovarian) of over 100 µM, a TGI (K-562 leukemia) of over 100 µM and a TGI (KM12 colon) of over 100 µM. The TGI (LOX IMVI melanoma) was over 100 µM, the TGI (M14 melanoma) was over 100 µM and the TGI (MALME-3M melanoma) was over 100 µM. The TGI (MCF7 breast) was over 100 µM, the TGI (MDA-MB-231 breast) was over 100 µM and the TGI (MDA-MB-435) was over 100 µM. It also gave a TGI (MDA-N) of over 100 µM, a TGI (NCI-H226 lung) of over 100 µM and a TGI (NCI-H23 lung) of over 100 µM. It also gave a TGI (NCI-H460 lung) of over 100 µM, a TGI (NCI-H522 lung) of over 100 µM and a TGI (NCI/ADR-RES ovarian) of over 100 µM. The TGI (OVCAR-4 ovarian) was over 100 µM, the TGI (OVCAR-5 ovarian) was over 100 µM and the TGI (OVCAR-8 ovarian) was over 100 µM. The TGI (PC-3 prostate) was over 100 µM, the TGI (RPMI-8226 leukemia) was over 100 µM and the TGI (RXF 393 renal) was over 100 µM. For the same compound, the TGI (SF-268 CNS) was over 100 µM, the TGI (SF-295 CNS) was over 100 µM and the TGI (SK-MEL-2 melanoma) was over 100 µM. For the same compound, the TGI (SK-MEL-28 melanoma) was over 100 µM, the TGI (SK-MEL-5 melanoma) was over 100 µM and the TGI (SK-OV-3 ovarian) was over 100 µM. It also gave a TGI (SN12C renal) of over 100 µM, a TGI (SNB-19 CNS) of over 100 µM and a TGI (SNB-75 CNS) of 86.3 µM. The TGI (SR leukemia) was over 100 µM, the TGI (SW-620 colon) was over 100 µM and the TGI (T-47D breast) was over 100 µM. It also gave a TGI (TK-10 renal) of over 100 µM, a TGI (U251 CNS) of over 100 µM and a TGI (UACC-257 melanoma) of over 100 µM. For the same compound, the TGI (UACC-62 melanoma) was over 100 µM and the TGI (UO-31 renal) was over 100 µM.
